Laboratory results: ChEMBL document CHEMBL1125773, “Analogues of oxybutynin. Synthesis and antimuscarinic and bladder activity of some substituted 7-amino-1-hydroxy-5-heptyn-2-ones and related compounds” (1991)

Tests used:
Cavia porcellus [1] = assay: Effect on in vivo functional detrusor muscle contraction strength using guinea pig model of cystometrogram; parameters: species or system Muscle tissue
Cavia porcellus [2] = species on record: Cavia porcellus; assay: Antimuscarinic effect determined by comparing ability to inhibit carbachol-induced guinea pig detrusor muscle contractions; type: functional
Cavia porcellus [3] = species on record: Cavia porcellus; assay: Duration of action at which functional detrusor muscle contraction strength was measured using guinea pig model of cystometrogram; parameters: species or system Muscle tissue

SMILES	Potency (Cavia porcellus [1])	Kb (Cavia porcellus [2]) [µM]	Duration (Cavia porcellus [3]) [min]
CN(C)CC#CC(CO)C(O)(c1ccccc1)C1CCCCC1 (stereo not drawn)	7.38	0.0997	–
CN(C)CC#CCCC(=O)C(O)(C1CCCCC1)C1CCCCC1	15.3	0.169	–
CCNCC#CCCC(=O)C(O)(c1ccccc1)C1CC1 (stereo not drawn)	1.1	0.224	103
CCCCN(CC#CCCC(=O)C(O)(c1ccccc1)C1CCCCC1)CCC (stereo not drawn)	2.6	0.142	74
CCN(CC)CC#CCCC(=O)C(O)(c1ccccc1)C1CCCC1 (stereo not drawn)	3.1	0.021	–
CCNCC#CCCC(=O)C(O)(c1ccccc1)C1CC2CCC1C2 (stereo not drawn)	1.1	0.065	165
CN(C)CC#CCCC(=O)[C@@](O)(c1ccccc1)C1CCCCC1	3.6	0.209	88
CCCCN(CC#CCCC(=O)C(O)(c1ccccc1)C1CCCCC1)CCCC (stereo not drawn)	–	>5	–
CC(CC#CCN(C)C)C(=O)C(O)(c1ccccc1)C1CCCCC1 (stereo not drawn)	2.1	0.163	39
NCC#CCCC(=O)C(O)(c1ccccc1)C1CCCCC1 (stereo not drawn)	–	2.1	–
O=C(CCC#CCNCc1ccccc1)C(O)(c1ccccc1)C1CCCCC1 (stereo not drawn)	–	4.2	–
CN(C)CCCCCC(=O)C(O)(c1ccccc1)C1CCCCC1 (stereo not drawn)	1.27	0.043	294
CN(C)CC#CCCC(=O)[C@](O)(c1ccccc1)C1CCCCC1	0.19	0.017	257
CN(C)CC#CCCC(=O)C(O)(c1ccccc1)C1CCC1 (stereo in doubt; (-)-14b)	2.5	0.149	40
CC(C)NCC#CCCC(=O)C(O)(c1ccccc1)C1CCCCC1 (stereo not drawn)	2.1	0.292	35
CC(C)N(C)CC#CCCC(=O)C(O)(c1ccccc1)C1CCCCC1 (stereo not drawn)	4.2	0.267	41
CN(C)Cc1ccc(CCC(=O)C(O)(c2ccccc2)C2CCCCC2)cc1 (stereo not drawn)	–	1.9	–
CC(C)N(CC#CCCC(=O)C(O)(c1ccccc1)C1CCCCC1)C(C)C (stereo not drawn)	5.3	0.26	32
CCN(CC)CC#CCCC(=O)C(C)(O)c1ccccc1 (stereo not drawn)	–	5.2	–
CN(C)CC#CCCC(=O)C(O)(c1ccccc1)C1CCC1 (single isomer, unassigned; (+))	0.06	0.0062	88
CCN(CC#CCCC(=O)C(O)(c1ccccc1)C1CCCCC1)C(C)C (stereo not drawn)	3.3	0.217	23
CCN(C)CC#CCCC(=O)C(O)(c1ccccc1)C1CC1 (stereo not drawn)	1.3	0.241	127
CN(CC#CCCC(=O)C(O)(c1ccccc1)C1CCCCC1)CCO (stereo not drawn)	–	0.257	–
CNCC#CCCC(=O)C(O)(c1ccccc1)C1CCCCC1 (stereo not drawn)	0.48	0.0712	48
CN(C)CC#CCCC(=O)C(O)(c1ccccc1)C1CCCC1 (stereo not drawn)	0.33	0.002	98

SMILES	Potency (Cavia porcellus [1])	Kb (Cavia porcellus [2]) [µM]	Duration (Cavia porcellus [3]) [min]
CCN(CC)CC#CCCC(=O)C(O)(c1ccccc1)c1ccccc1	–	0.0707	–
CCNCC#CCCC(=O)C(O)(c1ccc(F)cc1)C1CCCCC1 (stereo not drawn)	1.8	0.504	116
CN(C)CC#CCCC(=O)C(O)(c1ccccc1)C1CC1 (stereo not drawn)	0.48	0.035	89
CCN(CC)CC#CCCC(=O)C(O)(c1ccccc1)C1CCCCC1 (stereo not drawn)	2.8	0.175	30
CCN(C)CC#CCCC(=O)C(O)(c1ccccc1)C1CCC1 (stereo not drawn)	0.86	0.0075	168
CN(CC#CCCC(=O)C(O)(c1ccccc1)C1CCCCC1)CCc1ccccc1 (stereo not drawn)	>10	0.551	–
CCN(CC)CC#CCCC(O)C(O)(c1ccccc1)C1CCCCC1 (stereo not drawn)	6.3	1.6	123
CN(C)CC#CCCC(=O)C(O)(c1ccccc1)C12CCC(CC1)CC2 (stereo not drawn)	4.4	0.115	–
CN(C)CC#CCCC(=O)C(O)(c1ccccc1)C1CCCCC1 (stereo not drawn)	0.48	0.0387	126
CN(C)CC#CCCC(=O)C(O)(c1ccccc1)C1(C)CC1 (stereo not drawn)	0.28	0.024	80
CCN(CC)CC#CCCC(=O)C(O)(c1ccccc1)C1CC1 (stereo not drawn)	0.98	0.058	80
CC(C)C(O)(C(=O)CCC#CCN(C)C)c1ccccc1 (stereo not drawn)	0.48	0.0183	80
CC(C)CC(O)(C(=O)CCC#CCN(C)C)c1ccccc1 (stereo not drawn)	4.1	0.0305	–
CCN(C)CC#CCCC(=O)C(O)(c1ccccc1)c1ccccc1	0.9	0.0754	69
CCNCC#CCCC(=O)C(O)(c1ccccc1)C1CCCCC1 (stereo not drawn)	0.98	0.232	85
CN(C)CC#CCCC(=O)C(O)(c1ccccc1)C1CCC1 (stereo in doubt; 14b)	0.12	0.0049	116
CN(C)CC#CCCC(=O)C(O)(c1ccccc1)C12C[C@H]3C[C@@H](C1)C[C@@H](C2)C3 (stereo partly drawn)	–	>5	–
CCNCC#CCCC(=O)C(O)(c1ccccc1)C1CCC1 (stereo not drawn)	1.1	0.224	103
CN(C)CC#CCCC(=O)C(O[Si](C)(C)C)(c1ccccc1)C1CCCCC1 (stereo not drawn)	–	>5	–
CN(C)CC#CCCC(=O)C(O)(c1ccccc1)C1CC2CCC1C2 (stereo not drawn)	0.9	0.09	242
CN(C)CC#CCCC(=O)C(O)(c1ccc(F)cc1)C1CCCCC1 (stereo not drawn)	0.9	0.0677	104
CCN(C)CC#CCCC(=O)C(O)(c1ccccc1)C1CCCCC1 (stereo not drawn)	0.45	0.037	39
CN(C)CC#CCCC(=O)C(O)(c1ccccc1)c1ccccc1	0.59	0.0701	45
CCNCC#CCCC(=O)C(O)(c1ccccc1)c1ccccc1	1.5	0.2	54
